Where a name gives a salt, the structure may show the parent alone.
Columns and labels:
mexY (EC) strain = test: Efflux ability inhibition effect on drug efflux pump MexY (Test Examples 1 and 3): proliferation (OD595) of mexY (EC) strain with EM or LVFX at 1/4 MIC, EC75; assay type: cell-based, Escherichia coli; conditions: for EC75, mexY (EC) strain, EM: combined with EM at 1/4 MIC; for EC75, mexY (EC) strain, LVFX: combined with LVFX at 1/4 MIC
Method: The efflux ability inhibition effect of the test compound on the drug efflux pump was evaluated using the bacterial proliferative ability in the presence of EM or LVFX as an index.
EM is a macrolide antibacterial agent and is a drug that is discharged outside the bacteria by MexB and MexY LVFX is a quinolone antibacterial agent and is a drug that is discharged outside the bacteria by MexB and MexY In a case where the test compound has an efflux ability inhibitory ability against the drug efflux pump, the proliferation of bacteria is suppressed by the combined use of EM or LVFX and the test compound, as compared with the case where EM or LVFX is used alone.
A mutant strain (hereinafter, referred to as an “mexB (EC) strain”) obtained by transferring the genes of the main multidrug efflux system MexAB-OprM of Pseudomonas aeruginosa described in Nature, 2013, Vol. 500, pp. 102 to 106 as a plasmid into Escherichia coli strains in which the acrB and tolC genes of the multidrug efflux system AcrAB-TolC were deleted as described in Journal of Infection and Chemotherapy 2008, Vol. 14, pp. 23 to 29, and a gene transfer strain (hereinafter, referred to as an “mexY (EC) strain”) of another main multidrug efflux system MexXY-OprM of Pseudomonas aeruginosa were used for the evaluation of test compounds.
In the mexB (EC) strain, an expression level of MexB of the drug efflux pump is accelerated, and in the mexY (EC) strain, an expression level of MexY of the drug efflux pump is accelerated.
For culturing each Escherichia coli strain, a 96-well plate (amount of culture medium per well: 100 μL) was used and Luria-Bertani broth (LB) culture medium was used. The inoculation amount of the bacteria was set to 10^4 to 5 CFU/well.
The mexB (EC) strain and the mexY (EC) strain were cultured for 16 to 20 hours in a culture medium to which EM or LVFX and test compounds at various concentrations (0 to 800 μM) were added, and the proliferation of the bacterial strains was evaluated by optical turbidity at 595 nm (OD595). The concentration of the antibacterial agents (EM and LVFX) in the culture medium were each set to ¼ of the minimum inhibitory concentration (MIC) (hereinafter, referred to as ¼ MIC) of the single antibacterial agent.
The proliferation of bacteria in a case where the antibacterial agent was added at the concentration of ¼ MIC in a case where the test compound was not added was measured, and compared with the proliferation of bacteria in a case where the test compound was contained, and the lowest concentration of the test compound at which the proliferation was inhibited by 75% or more was defined as the drug efflux pump inhibitory ability of the test compound as 75% inhibitory effect concentration (EC75).
The drug efflux pump inhibitory ability of each test compound in a case of being used in combination with the antibacterial agent against the mexB (EC) strain and the mexY (EC) strain was evaluated as follows according to the value of EC75. • S: EC75≤[…] • A: 12.5 μM<EC75≤25 μM • B: 25 μM<EC75≤100 μM • C: […]
In the same manner as in Test Example 1, the efflux ability inhibition effect of the test compound on the drug efflux pump was evaluated using the bacterial proliferation ability in the presence of EM or LVFX as an index.

mexB (PA) strain = test: Combinational effect with antibacterial agent against Pseudomonas aeruginosa (Test Examples 2 and 4): mexB (PA) strain with LVFX, TC or AZT at 1/4 MIC, EC99; assay type: cell-based; conditions: for EC99, combinational effect with AZT, mexB (PA) / EC99, combinational effect with LVFX, mexB (PA) / EC99, combinational effect with TC, mexB (PA): mexB (PA) strain, Test Example 4
Procedure, shortened: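 P. aeruginosa mexB (PA) strain, lacking MexCD-OprJ, MexEF-OprN and MexXY and overexpressing MexAB-OprM, grown 16–20 h in CAMHB (10^4–5 CFU/well) with LVFX, TC or AZT at ¼ MIC plus test compound at 0–800 μM. Growth read as OD595; EC99 is the lowest compound concentration giving ≥99% growth inhibition.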

S-3769 strain = test: Combinational effect with antibacterial agent against Pseudomonas aeruginosa (Test Examples 2 and 4): S-3769 strain with AMK or GM at 1/4 MIC, EC99; assay type: cell-based; conditions: for EC99, combinational effect with AMK, S-3769 strain / EC99, combinational effect with GM, S-3769 strain: Test Example 4
Procedure, shortened: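 P. aeruginosa S-3769 (clinical isolate, MexY overexpressed) grown 16–20 h in CAMHB, 10^4 to 5 CFU/well, with AMK or GM at ¼ MIC plus test compound 0–800 μM. Growth read as OD595; EC99 is the lowest compound concentration giving ≥99% growth inhibition.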

[1] = Table 53, Test Example 3, same manner as Test Example 1
[2] = Table 51, Test Example 1, 16 to 20 hours culture, OD595

SMILES	EC75, mexY (EC) strain, EM (mexY (EC) strain; [1])	EC99, combinational effect with AZT, mexB (PA) (mexB (PA) strain; combined with AZT at 1/4 MIC)	EC99, combinational effect with LVFX, mexB (PA) (mexB (PA) strain; combined with LVFX at 1/4 MIC)	EC99, combinational effect with TC, mexB (PA) (mexB (PA) strain; combined with TC at 1/4 MIC)	EC99, combinational effect with AMK, S-3769 strain (S-3769 strain; combined with AMK at 1/4 MIC)	EC99, combinational effect with GM, S-3769 strain (S-3769 strain; combined with GM at 1/4 MIC)	EC75, mexY (EC) strain, LVFX (mexY (EC) strain; [1])	EC75, mexY (EC) strain, EM (mexY (EC) strain; [2])	EC75, mexY (EC) strain, LVFX (mexY (EC) strain; [2])	EC99, mexB (PA), AZT (mexB (PA) strain; Table 52, Test Example 2, combined with AZT at 1/4 MIC, 16 to 20 hours culture, OD595)	EC99, mexB (PA), LVFX (mexB (PA) strain; Table 52, Test Example 2, combined with LVFX at 1/4 MIC, 16 to 20 hours culture, OD595)	EC99, mexB (PA), TC (mexB (PA) strain; Table 52, Test Example 2, combined with TC at 1/4 MIC, 16 to 20 hours culture, OD595)	EC99, S-3769 strain, AMK (S-3769 strain; Table 52, Test Example 2, combined with AMK at 1/4 MIC, 16 to 20 hours culture, OD595)	EC99, S-3769 strain, GM (S-3769 strain; Table 52, Test Example 2, combined with GM at 1/4 MIC, 16 to 20 hours culture, OD595)
CCOc1cccc(F)c1CN1CCN(C(=O)[C@H](N)C2CCN(CCc3cc(Cl)ccc3-c3ccnn3C)CC2)CC1 [Example 503, Hydrobromide of (R)-2-amino-2-(1-(5-chloro-2-(1-methyl-1H-pyrazol-5-yl)phenethyl)piperidin-4-yl)-1-(4-(2-ethoxy-6-fluorobenzyl)piperazin-1-yl)ethan-1-one]	A (12.5 μM<EC75≤25 μM)	C (100 μM<EC99)	C (100 μM<EC99)	C (100 μM<EC99)	B (25 μM<EC99≤100 μM)	B (25 μM<EC99≤100 μM)	–	–	–	–	–	–	–	–
CCSc1cc(F)ccc1CN1CCN(C(=O)[C@H](N)C2CCN(CCc3cc(Cl)ccc3-c3ccccc3Cl)CC2)CC1 [Example 599, Hydrochloride of (R)-2-amino-2-(1-(2-(2′,4-dichloro-[1,1-biphenyl]-2-yl)ethyl)piperidin-4-yl)-1-(4-(2-(ethylthio)-4-fluorobenzyl)piperazin-1-yl)ethan-1-one]	A (12.5 μM<EC75≤25 μM)	S (EC99≤12.5 μM)	S (EC99≤12.5 μM)	S (EC99≤12.5 μM)	B (25 μM<EC99≤100 μM)	S (EC99≤12.5 μM)	–	–	–	–	–	–	–	–
CCOc1cccc(F)c1CN1CCN(C(=O)[C@H](N)C2CC[N+](CCc3cc(Cl)ccc3-c3ccccc3)(CC(=O)[O-])CC2)CC1 (stereo partly drawn) [Example 567, Hydrobromide of (R)-2-(4-(1-amino-2-(4-(2-ethoxy-6-fluorobenzyl)piperazin-1-yl)-2-oxoethyl)-1-(2-(4-chloro-[1,1-biphenyl]-2-yl)ethyl)piperidin-4-ium-1-yl)acetate]	B (25 μM<EC75≤100 μM)	C (100 μM<EC99)	C (100 μM<EC99)	C (100 μM<EC99)	B (25 μM<EC99≤100 μM)	C (100 μM<EC99)	B (25 μM<EC75≤100 μM)	–	–	–	–	–	–	–
CSc1ccc(CN2CCN(C(=O)[C@H](N)C3CCN(CCc4cc(Cl)ccc4-c4ccccc4)CC3)CC2)s1 [Example 523, Hydrobromide of (R)-2-amino-2-(1-(2-(4-chloro-[1,1-biphenyl]-2-yl)ethyl)piperidin-4-yl)-1-(4-((5-(methylthio)thiophen-2-yl)methyl)piperazin-1-yl)ethan-1-one]	–	B (25 μM<EC99≤100 μM)	B (25 μM<EC99≤100 μM)	B (25 μM<EC99≤100 μM)	B (25 μM<EC99≤100 μM)	B (25 μM<EC99≤100 μM)	A (12.5 μM<EC75≤25 μM)	–	–	–	–	–	–	–
CSc1ccccc1CN1CCN(C(=O)[C@H](N)C2CCN(CCc3cc(Cl)ccc3-c3ccccc3Cl)CC2)CC1 [Example 555, Hydrobromide of (R)-2-amino-2-(1-(2-(2′,4-dichloro-[1,1-biphenyl]-2-yl)ethyl)piperidin-4-yl)-1-(4-(2-(methylthio)benzyl)piperazin-1-yl)ethan-1-one]	A (12.5 μM<EC75≤25 μM)	B (25 μM<EC99≤100 μM)	B (25 μM<EC99≤100 μM)	A (12.5 μM<EC99≤25 μM)	B (25 μM<EC99≤100 μM)	B (25 μM<EC99≤100 μM)	A (12.5 μM<EC75≤25 μM)	–	–	–	–	–	–	–
CSc1ccccc1CN1CCN(C(=O)[C@H](N)C2CCN(CCc3cc(Cl)ccc3-c3cccc(Cl)c3)CC2)CC1 [Example 552, Hydrobromide of (R)-2-amino-2-(1-(2-(3′,4-dichloro-[1,1-biphenyl]-2-yl)ethyl)piperidin-4-yl)-1-(4-(2-(methylthio)benzyl)piperazin-1-yl)ethan-1-one]	A (12.5 μM<EC75≤25 μM)	S (EC99≤12.5 μM)	S (EC99≤12.5 μM)	S (EC99≤12.5 μM)	B (25 μM<EC99≤100 μM)	S (EC99≤12.5 μM)	A (12.5 μM<EC75≤25 μM)	–	–	–	–	–	–	–
CCOc1cccc(F)c1CN1CCN(C(=O)CN2CCC(C(N)Cc3ccccc3)CC2)CC1 (stereo not shown) [Example 423, hydrochloride of 2-(4-(1-amino-2-phenylethyl)piperidin-1-yl)-1-(4-(2-ethoxy-6-fluorobenzyl)piperazin-1-yl)ethan-1-one]	–	–	–	–	–	–	–	B (25 μM<EC75≤100 μM)	A (12.5 μM<EC75≤25 μM)	C (100 μM<EC99)	C (100 μM<EC99)	B (25 μM<EC99≤100 μM)	C (100 μM<EC99)	C (100 μM<EC99)
CCOc1cccc(F)c1CN1CCN(C(=O)[C@H](N)C2CCN(CCc3cc(Cl)ccc3-c3c[nH]ccc3=O)CC2)CC1 [Example 577, Hydrochloride of (R)-3-(2-(2-(4-(1-amino-2-(4-(2-ethoxy-6-fluorobenzyl)piperazin-1-yl)-2-oxoethyl)piperidin-1-yl)ethyl)-4-chlorophenyl)pyridine-4(1H)-one]	–	B (25 μM<EC99≤100 μM)	B (25 μM<EC99≤100 μM)	B (25 μM<EC99≤100 μM)	C (100 μM<EC99)	C (100 μM<EC99)	A (12.5 μM<EC75≤25 μM)	–	–	–	–	–	–	–

From US20250326744A1, “PIPERAZINE DERIVATIVE OR SALT THEREOF, AND PHARMACEUTICAL COMPOSITION” (priority 2022, published 2025)
